Measured values as given in patent US20220267374A1, “IMMUNITY INDUCER AND PHARMACEUTICAL COMPOSITION FOR PREVENTING OR TREATING AGING-RELATED DISEASES” (priority 2019, published 2022).
Ends that are not written are not given here.

Assays:
[1] = Survival curve (Kaplan-Meier); format: in vivo, Zmpste24 KO mice; details: normal diet, s.c. vaccination at 10 weeks of age; regardless of gender; FIG. 2M
Description: In addition, Zmpste24-deficient (KO) mice (model of Hutchinson-Gilford progeria syndrome, MGI: 2158363) were used as a model of premature aging mice. Generation and genotyping of Zmpste24 KO mice followed the previous report (http://www.informatics.jax.org/allele/MGI:2158363).
Zmpste24 KO mice were bred on normal diet. For some Zmpste24 KO mice, peptide vaccine 1 was administered by subcutaneous injection at a time point of 10 weeks of age (about 50 weeks of age in C57BL/6 mice). Survival curves were calculated by the Kaplan-Meier method and compared by a log-rank test (refer to FIG. 2M).

GPNMB-positive cells = assay: Analysis of Gpnmb-dependent luciferase activity (in vivo IVIS imaging); parameters: species or system Gpnmb-DTR mouse; details: HFD-fed Gpnmb-DTR mouse, 16 weeks of age, s.c. vaccination at 8 weeks of age; vs control vaccine; FIG. 2B
Description: Gpnmb-DTR mouse bred by feeding normal diet or HFD for 4 weeks, and Gpnmb-DTR mouse bred by feeding HFD for 4 weeks, and then injecting DT (50 μg/kg body weight) at 2-week intervals (12 weeks of age and 14 weeks of age) intraperitoneally twice while continuing to feed HFD (16 weeks of age) were subjected to in vivo luciferase imaging analysis using the IVIS imaging system (Perkin Elmer). Mice were shaved ventrally, anesthetized with isoflurane (Wako Pure Chemicals Industries), and injected intraperitoneally with luciferin (150 mg/kg body weight) according to the manufacturer's instructions (Vivo-Glo; Promega). Luciferase activity was monitored 5 minutes after luciferin administration. Signals were analyzed using Living Image software (Perkin Elmer) to quantify luciferase activity. In FIG. 1B, “Before” is a Gpnmb-DTR mouse before HFD was fed (6 weeks of age), “HFD” is a Gpnmb-DTR mouse that was fed with HFD from 6 weeks of age and bred for 6 weeks (12 weeks of age), and “After DT” is a Gpnmb-DTR mouse that was bred by feeding HFD for 4 weeks and then injecting DT (50 μg/kg body weight) at 2-week intervals (12 weeks of age and 14 weeks of age) intraperitoneally twice while continuing to feed HFD (16 weeks of age). […]

[2] = tested on: aging-related acidic β-galactosidase (SA-β-gal); assay: SA-β-gal staining of adipose tissue; format: in vivo, C57BL/6 mice; details: HFD-fed mice, 16 weeks of age, s.c. vaccination at 8 weeks of age, vs control vaccine, FIGS. 2G, 2H
Description: Aging-related acidic β-galactosidase (SA-β-gal) activity in adipose tissue was tested. Briefly, adipose tissue newly isolated from each Gpnmb-DTR mouse was incubated at 37° C. for 2 hours in a β-gal staining solution (containing 1 mg/ml of 5-bromo-4-chloro-3-indaryl β-D-galactopyranoside (X-gal), 5 mmol/L potassium ferrocyanide, 150 mmol/L of sodium chloride, 2 mmol/L of magnesium chloride, 0.01% of sodium deoxycholate, and 0.02% of nonidet-40). Then, the stained adipose tissue was captured (refer to FIG. 1C). SA-β-gal stainability was quantified by Image-J software (refer to FIG. 1D). […]
SA-β-gal staining was performed using the same method as in “3.” of Reference Example 1, except that adipose tissue collected from C57BL/6 mice (16 weeks of age) bred by feeding HFD from 4 weeks of age and administered with peptide vaccine 1 or a control vaccine by subcutaneous injection at a time point of 8 weeks of age was used. The SA-β-gal stainability was quantified by Image-J software (refer to FIG. 2H). […]

p19^Arf = assay: Analysis of p19Arf-dependent luciferase activity; format: in vivo, p19^Arf-DTR-Luc mouse; details: HFD-fed p19Arf-DTR-Luc mouse, 21 weeks of age, s.c. vaccination at 13 weeks of age; vs control vaccine; FIG. 2F
GPNMB protein = assay: Antibody titer by ELISA in plasma of vaccinated mice; format: in vivo, C57BL/6 mice; details: vs control vaccine group; KLH-bound peptide 20 μg with Titer Max Gold s.c. at 8 weeks of age, HFD-fed mice; plasma up to 6 weeks; FIG. 2A
Description: First, the antibody titers of the obtained two peptide vaccines were examined. Peptide vaccine 1 or peptide vaccine 2 (20 μg) and Titer Max Gold adjuvant (Titer Max USA) conjugated with KLH as carrier protein for induction of cytotoxic antibody were mixed in two syringes according to the manufacturer's protocol for emulsification. Subsequently, eight-week-old C57BL/6 mice fed with HFD from 4 weeks of age were subcutaneously injected with KLH-binding antigen peptide (20 μg) with a Titer Max Gold adjuvant to induce cytotoxic antibodies. C57BL/6 mice in the control group were subcutaneously injected with a KLH solution (hereinafter, referred to as “control vaccine”) mixed with Titer Max Gold in an equal amount. Plasma was collected from the tail vein of each mouse immediately after administration of the peptide vaccine and after 2, 4, and 6 weeks for antibody titer analysis. The antibody titer produced by injection of each peptide was measured by ELISA. Specifically, first, a 96-well microtiter plate (Nunc-Immuno MicroWell 96-well solid plate, Thermo Scientific) was coated using a carbonate buffer containing peptide vaccine 1 or peptide vaccine 2 bonded to bovine serum albumin (BSA). […] After reacting with the TMB substrate (Sigma-Aldrich, T0440), the optical density was measured at 450 nm (0D450) using a microtiter plate reader (iMark microplate reader, Bio-Rad).

## RRGDGRWKD (also: KLH conjugate; listed as Mus musculus) [peptide vaccine 1, peptide of positions 63 to 71 of mouse GPNMB protein]
[1]
  lifespan (survival curve): extended
GPNMB-positive cells
  Gpnmb-dependent luciferase activity: decreased
[2]
  SA-β-gal activity: decrease
p19^Arf
  p19Arf-dependent luciferase activity in visceral adipose tissue: decrease
GPNMB protein
  antibody titer against GPNMB protein: significantly higher
